Values joined by “and” are separate entries in the source; they are usually repeats but may differ in a detail not shown here. Equal entries are not always repeated. “Also recorded” adds a separate entry of the source. Where two headings read alike, the source gives them in different places.
How the values were obtained:
[1] = system: purine nucleoside phosphorylase (PNP); assay: PNP enzyme activity assay (release of NAM monitored by 1H NMR); type: in vitro ADME; conditions: for stability to PNP (in words): triflates dissolved in DMSO; for overall trend of stability of NR esters to PNP: rank order; for ester hydrolysis / deprotection observed during PNP incubation: over time
Protocol: To ensure that the stability rather than the solubility could be investigated, both the triflate and the chloride form of NRLR (“NRLR-OTf” and “NRLR-Cl”, respectively) were tested for their stability in aqueous buffers and as substrates of the enzyme purine nucleoside phosphorylase (PNP). The release of nicotinamide (NAM) was measured, which is indicative of water-catalyzed hydrolysis. Further, the release of ribose vs. phosphoriboside was monitored, which is indicative of PNP activity. Loss of esters via hydrolysis in buffer catalyzed condition also occurs over time. Once the C5-hydroxyl is free, PNP recognizes the nucleoside and catalyze phosphorolysis. It is not known whether this hydrolysis must occur for all the esters before PNP can act on the nucleoside. The scheme below illustrates the reaction with a partially deprotected nucleoside.
Phosphorolysis of NRCl by PNP (Sigma Aldrich) was performed in HEPES buffer, containing KH2PO4 and 10% D2O at 25° C. and was monitored by 1H NMR.
Incubations were conducted in the NMR tube which contained a final volume of 505 μl including 450 μl HEPES buffer (100.0 mM, pH 7.0), containing 100 mM KH2PO4, 50.0 μl NRCl (100.0 mM in 1 mL D2O) and when appropriate 5 μl PNP (1 mg dissolved in 50 μl HEPES buffer) was added and measurements were taken at t=5 min and 15 min.
Similarly, PNP study of NRAD-triflate was conducted in DMSO.

Solubility in water = type: physicochemical
[2] = Octanol-water partition coefficient (Pow) by 1H NMR; type: physicochemical
Protocol: The experiment was performed as described in “Measuring Lipophilicity with NMR,” SpinSolve Carbon®, MagriTek (2014). Briefly, ^1H NMR spectra were recorded for NRLR-Cl in D2O, then an equivalent volume of 1-octanol was added to the same NMR tube, and the ^1H NMR was recorded again. The measurements were performed in triplicate. The Pow was calculated based on the concentrations of the NRLR-Cl in the D2O layer and in the octanol layer, as determined based on the NMR peak values. The average measured log POW of NRLR-Cl is 1.816.

[3] = system: enhanced lipase (Candida rugens); assay: Lipase assay; type: in vitro ADME
Protocol: NRLR was subjected to a lipase assay in 10% DMSO, 450 μL HEPES buffer, and enhanced lipase (Candida rugens).

[4] = 1-octanol/D2O, single experiment, listed as NRLR-CI

Molecule	stability to PNP (in words) ([1]; 1H NMR)	overall trend of stability of NR esters to PNP [1]	solubility in water (Solubility in water)	ester hydrolysis / deprotection observed during PNP incubation ([1]; 1H NMR)	remaining NR diester peaks ([1]; PNP, after 2 days (FIG. 40B))	other results
NC(=O)c1ccc[n+]([C@@H]2O[C@H](CO)[C@@H](O)[C@H]2O)c1 [NRCl, Nicotinamide riboside, reference compound]	least stable to PNP enzyme	NRTA>NRAD>NRML>NRLR>NRCl	–	–	–	time to complete conversion/degradation to NAM after PNP addition ([1]; HEPES buffer pH 7.0, KH2PO4, 10% D2O, 25° C., 1H NMR, listed as NR): ≤ 5 min
CCCCCCCCCCCC(=O)OC[C@H]1O[C@@H]([n+]2cccc(C(N)=O)c2)[C@H](OC(C)=O)[C@@H]1OC(C)=O [NRLR-Cl, NRLR-Chloride]	–	–	soluble in water	–	–	Average (LogPow) ([2]; 1-octanol/D2O, average of triplicate): 1.816; logP ([2]; 1-octanol/D2O, average of triplicate, read-out: Average (LogPow)): 1.82; LogPow [2, 4]: 1.89 and 1.80 and 1.76; Pow [2, 4]: 78.66 and 63.33 and 58.88; Peak values in water layer ([2]; 1H NMR in D2O before octanol addition, listed as NRLR-CI): 0.0478 and 0.0386 and 0.0539; Peak values after octanol addition ([2]; 1H NMR, D2O layer after equivalent volume of 1-octanol, listed as NRLR-CI): 0.0006 and 0.0009
CC(=O)OC[C@H]1O[C@@H]([n+]2cccc(C(N)=O)c2)[C@H](OC(C)=O)[C@@H]1OC(C)=O [NRTA, NR triacetate, reference compound]	stable to PNP; also recorded: more stable to PNP than NRCL	NRTA>NRAD>NRML>NRLR>NRCl	–	Slow partial ester hydrolysis	–	hydrolysis and NAM release with PNP ([1]; after 24 hours): very slowly hydrolyzed and releases NAM
CC(=O)O[C@@H]1[C@H](OC(C)=O)[C@@H](COC(=O)CC(=O)OC[C@H]2O[C@@H]([n+]3cccc(C(N)=O)c3)[C@H](OC(C)=O)[C@@H]2OC(C)=O)O[C@H]1[n+]1cccc(C(N)=O)c1 [compound 8a, NR malonate]	less stable compared to NR adipate	NRTA>NRAD>NRML>NRLR>NRCl	–	–	still showed some NR diester peaks	–
CC(=O)O[C@@H]1[C@H](OC(C)=O)[C@@H](COC(=O)CCCCC(=O)OC[C@H]2O[C@@H]([n+]3cccc(C(N)=O)c3)[C@H](OC(C)=O)[C@@H]2OC(C)=O)O[C@H]1[n+]1cccc(C(N)=O)c1 [compound 8d, NR adipate]	appears stable to PNP	NRTA>NRAD>NRML>NRLR>NRCl	–	ester dimer appeared to remain intact	still showed some NR diester peaks	–
NR-laurate (NRLR) triflate [compound 8g]	less stable compared to NR adipate	NRTA>NRAD>NRML>NRLR>NRCl	not completely soluble in water	partial deprotection of the esters over time	–	increase in NAM ([1]; PNP, after 1 day (FIG. 40A)): 30%; degraded to NAM ([1]; PNP, after 2 days (FIG. 40B)): ~90%; overall increase in NAM ([1]; PNP, over 24 hours): 17%; partial loss of one ester [3]: < 5%; effect of increased concentration of lipase ([3]; over 12 hours of incubation): no effect; solubility in water (Solubility in water; listed as NRLR-OTf): is not
